Measurements reported in paper PMC5218480 (PLoS ONE, 2017).

System: MV-4-11 cells
Experiment: Gene expression microarray analysis (Affymetrix PrimeView) and GSEA
Assay type: cell-based, human
Design: RFU PODN (11730768_x_at) / Fold change /veh PODN (11730768_x_at) / RFU LINC00158 (11744669_a_at) / Fold change /veh LINC00158 (11744669_a_at) / RFU DUSP10 (11751237_a_at) / Fold change /veh DUSP10 (11751237_a_at) / RFU ID3 (11757404_x_at) / Fold change /veh ID3 (11757404_x_at) / RFU PLEKHG5 (11737974_s_at) / Fold change /veh PLEKHG5 (11737974_s_at) / RFU LRRC4B (11730491_at) / Fold change /veh LRRC4B (11730491_at) / RFU GIMAP4 (11747438_a_at) / Fold change /veh GIMAP4 (11747438_a_at) / RFU KRT8 (11758183_x_at) / Fold change /veh KRT8 (11758183_x_at) / RFU CNN1 (11734310_a_at) / Fold change /veh CNN1 (11734310_a_at) / RFU VPS37D (11726825_at) / Fold change /veh VPS37D (11726825_at) / RFU C10orf10 (11716522_x_at) / Fold change /veh C10orf10 (11716522_x_at) / RFU KIR2DL2 /// KIR2DL4 /// KIR2DL5A /// KIR2DL5B /// KIR2DS1 /// KIR2DS2 /// KIR2DS3 /// KIR2DS4 /// KIR3DL3 /// KIR3DL3 /// KIR3DS1 (11738374_at) / Fold change /veh KIR2DL2 /// KIR2DL4 /// KIR2DL5A /// KIR2DL5B /// KIR2DS1 /// KIR2DS2 /// KIR2DS3 /// KIR2DS4 /// KIR3DL3 /// KIR3DL3 /// KIR3DS1 (11738374_at) / RFU C1QL1 (11718748_at) / Fold change /veh C1QL1 (11718748_at) / RFU TMPRSS4 (11747572_a_at) / Fold change /veh TMPRSS4 (11747572_a_at) / RFU HAMP (11756126_x_at) / Fold change /veh HAMP (11756126_x_at) / RFU RNFT2 (11725882_a_at) / Fold change /veh RNFT2 (11725882_a_at) / RFU NR4A2 (11747474_a_at) / Fold change /veh NR4A2 (11747474_a_at) / RFU ABCC12 (11746883_a_at) / Fold change /veh ABCC12 (11746883_a_at) / RFU TMEM136 (11760407_x_at) / Fold change /veh TMEM136 (11760407_x_at) / RFU CLDN22 /// WWC2 (11732394_at) / Fold change /veh CLDN22 /// WWC2 (11732394_at) / RFU HLA-DPB1 (11760878_x_at) / Fold change /veh HLA-DPB1 (11760878_x_at) / RFU SPINT1 (11716480_a_at) / Fold change /veh SPINT1 (11716480_a_at) / RFU GAP43 (11754022_s_at) / Fold change /veh GAP43 (11754022_s_at) / RFU A4GNT (11735810_at) / Fold change /veh A4GNT (11735810_at) / RFU PRB3 (11715151_x_at) / Fold change /veh PRB3 (11715151_x_at) / RFU TUBB4B (11761932_at) / Fold change /veh TUBB4B (11761932_at) / RFU CAPN14 (11732068_a_at) / Fold change /veh CAPN14 (11732068_a_at) / RFU TMCC2 (11721928_a_at) / Fold change /veh TMCC2 (11721928_a_at) / RFU IRGQ (11745062_a_at) / Fold change /veh IRGQ (11745062_a_at) / RFU FAM174B (11720279_a_at) / Fold change /veh FAM174B (11720279_a_at) / RFU TMPRSS4 (11748680_a_at) / Fold change /veh TMPRSS4 (11748680_a_at) / RFU FAM212B (11763350_a_at) / Fold change /veh FAM212B (11763350_a_at) / RFU PLEKHG5 (11743358_a_at) / Fold change /veh PLEKHG5 (11743358_a_at) / RFU ZSCAN30 (11745921_a_at) / Fold change /veh ZSCAN30 (11745921_a_at) / RFU CMKLR1 (11741424_a_at) / Fold change /veh CMKLR1 (11741424_a_at) / RFU LOC101060620 /// MAPK8IP1 (11723275_at) / Fold change /veh LOC101060620 /// MAPK8IP1 (11723275_at) / RFU SPTSSB (11747773_x_at) / Fold change /veh SPTSSB (11747773_x_at) / RFU PRSS12 (11739890_at) / Fold change /veh PRSS12 (11739890_at) / RFU BIN1 (11741810_x_at) / Fold change /veh BIN1 (11741810_x_at) / RFU WNT11 (11732464_a_at) / Fold change /veh WNT11 (11732464_a_at) / RFU C10orf10 (11716521_a_at) / Fold change /veh C10orf10 (11716521_a_at) / RFU C5orf56 (11738089_at) / Fold change /veh C5orf56 (11738089_at) / RFU CYB561 (11721691_x_at) / Fold change /veh CYB561 (11721691_x_at) / RFU ANKRD19P (11752326_a_at) / Fold change /veh ANKRD19P (11752326_a_at) / RFU OR2T12 /// OR2T33 /// OR2T8 (11738714_s_at) / Fold change /veh OR2T12 /// OR2T33 /// OR2T8 (11738714_s_at) / RFU VCAN (11748164_a_at) / Fold change /veh VCAN (11748164_a_at) / RFU JSRP1 (11732532_at) / Fold change /veh JSRP1 (11732532_at) / RFU KRTAP10-11 (11738290_x_at) / Fold change /veh KRTAP10-11 (11738290_x_at) / RFU MYO3A (11730013_a_at) / Fold change /veh MYO3A (11730013_a_at) / RFU EBF3 (11725865_a_at) / Fold change /veh EBF3 (11725865_a_at) / RFU CAMK2N1 (11719241_x_at) / Fold change /veh CAMK2N1 (11719241_x_at) / RFU C5orf56 (11738088_a_at) / Fold change /veh C5orf56 (11738088_a_at) / RFU OLFML3 (11715873_a_at) / Fold change /veh OLFML3 (11715873_a_at) / RFU LOC100653217 /// NTM (11731650_a_at) / Fold change /veh LOC100653217 /// NTM (11731650_a_at) / RFU MAPK11 (11762145_a_at) / Fold change /veh MAPK11 (11762145_a_at) / RFU FIZ1 (11724087_x_at) / Fold change /veh FIZ1 (11724087_x_at) / RFU OASL (11726364_x_at) / Fold change /veh OASL (11726364_x_at) / RFU SOX15 (11748057_x_at) / Fold change /veh SOX15 (11748057_x_at) / RFU CD79A (11719716_a_at) / Fold change /veh CD79A (11719716_a_at) / RFU HIST1H1D (11736915_at) / Fold change /veh HIST1H1D (11736915_at) / RFU CASKIN2 (11723855_a_at) / Fold change /veh CASKIN2 (11723855_a_at) / RFU LOC730098 (11760151_x_at) / Fold change /veh LOC730098 (11760151_x_at) / RFU OR4N2 (11742367_at) / Fold change /veh OR4N2 (11742367_at) / RFU PRRT2 (11749266_a_at) / Fold change /veh PRRT2 (11749266_a_at) / RFU SNX32 (11753110_a_at) / Fold change /veh SNX32 (11753110_a_at) / RFU CDHR5 (11726645_a_at) / Fold change /veh CDHR5 (11726645_a_at) / RFU RCAN1 (11760418_a_at) / Fold change /veh RCAN1 (11760418_a_at) / RFU FAM167A (11723789_a_at) / Fold change /veh FAM167A (11723789_a_at) / RFU FAM26E (11764081_at) / Fold change /veh FAM26E (11764081_at) / RFU ISYNA1 (11749810_s_at) / Fold change /veh ISYNA1 (11749810_s_at) / RFU ACY1 (11761880_at) / Fold change /veh ACY1 (11761880_at) / RFU 11764098_at / Fold change /veh 11764098_at / RFU SAMD14 (11745864_x_at) / Fold change /veh SAMD14 (11745864_x_at) / RFU NPB (11741838_a_at) / Fold change /veh NPB (11741838_a_at) / RFU TMPRSS6 (11731388_a_at) / Fold change /veh TMPRSS6 (11731388_a_at) / RFU KRTAP10-2 (11738614_at) / Fold change /veh KRTAP10-2 (11738614_at) / RFU ARHGAP8 /// PRR5-ARHGAP8 (11727945_x_at) / Fold change /veh ARHGAP8 /// PRR5-ARHGAP8 (11727945_x_at) / RFU KRTAP5-7 /// NADSYN1 (11734609_at) / Fold change /veh KRTAP5-7 /// NADSYN1 (11734609_at) / RFU RASL12 (11751679_a_at) / Fold change /veh RASL12 (11751679_a_at) / RFU CDKN2B (11736163_a_at) / Fold change /veh CDKN2B (11736163_a_at) / RFU PRF1 (11729649_at) / Fold change /veh PRF1 (11729649_at) / RFU, ZNF638 /// ZNF638-IT1 / Fold change vs veh, ZNF638 /// ZNF638-IT1 / RFU, PANK3 / Fold change vs veh, PANK3 / RFU, SH3YL1 / Fold change vs veh, SH3YL1 / RFU, ZEB2 / Fold change vs veh, ZEB2 / RFU, NRIP1 / Fold change vs veh, NRIP1 / RFU, PTTG1IP / Fold change vs veh, PTTG1IP / RFU, CAPN2 / Fold change vs veh, CAPN2 / RFU, MED14 / Fold change vs veh, MED14 / RFU, SNORA58 / Fold change vs veh, SNORA58 / RFU, C1orf63 / Fold change vs veh, C1orf63 / RFU, LRRFIP1 / Fold change vs veh, LRRFIP1 / RFU, NDUFAF7 / Fold change vs veh, NDUFAF7 / RFU, SLC12A2 / Fold change vs veh, SLC12A2 / RFU, IBTK / Fold change vs veh, IBTK / RFU, ESF1 / Fold change vs veh, ESF1 / Fold change vs veh, TMEM50B / RFU, TAOK1 / Fold change vs veh, TAOK1 / RFU, ACBD3 / Fold change vs veh, ACBD3 / RFU, TMA16 / Fold change vs veh, TMA16 / RFU, RWDD3 / Fold change vs veh, RWDD3 / RFU, BCAT1 / Fold change vs veh, BCAT1 / RFU, EDEM3 / Fold change vs veh, EDEM3 / RFU, TMEM33 / Fold change vs veh, TMEM33 / RFU, WDR75 / Fold change vs veh, WDR75 / RFU, AHCTF1 / Fold change vs veh, AHCTF1 / RFU, TFRC / Fold change vs veh, TFRC / RFU, ZDHHC17 / Fold change vs veh, ZDHHC17 / RFU, NOM1 / Fold change vs veh, NOM1 / RFU, ARL8B / Fold change vs veh, ARL8B / RFU, ZBTB11 / Fold change vs veh, ZBTB11 / RFU, TAMM41 / Fold change vs veh, TAMM41 / RFU, KIAA1704 /// LOC100996395 / Fold change vs veh, KIAA1704 /// LOC100996395 / RFU, ING1 / Fold change vs veh, ING1 / RFU, TRMT61B / Fold change vs veh, TRMT61B / RFU, FUBP3 / Fold change vs veh, FUBP3 / RFU, TP53 / Fold change vs veh, TP53 / RFU, TNKS2 / Fold change vs veh, TNKS2 / RFU, ZFP14 / Fold change vs veh, ZFP14 / RFU, ACTR2 / Fold change vs veh, ACTR2 / RFU, PPP3R1 / Fold change vs veh, PPP3R1 / RFU, PIK3R1 / Fold change vs veh, PIK3R1 / RFU, HNRNPA1 / Fold change vs veh, HNRNPA1 / RFU, RNF170 / Fold change vs veh, RNF170 / RFU, ZNF28 / Fold change vs veh, ZNF28 / RFU, RNGTT / Fold change vs veh, RNGTT / RFU, OGT / Fold change vs veh, OGT / RFU, BRD1 / Fold change vs veh, BRD1 / RFU, MARS / Fold change vs veh, MARS / RFU, ZNF655 / Fold change vs veh, ZNF655 / RFU, FAHD1 / Fold change vs veh, FAHD1 / RFU, BDP1 / Fold change vs veh, BDP1 / RFU, LRRCC1 / Fold change vs veh, LRRCC1 / RFU, ARID1A / Fold change vs veh, ARID1A / RFU, ZNF146 / Fold change vs veh, ZNF146 / RFU, ZNF330 / Fold change vs veh, ZNF330 / RFU, GPN3 / Fold change vs veh, GPN3 / RFU, C9orf123 / Fold change vs veh, C9orf123 / RFU, N4BP2L2 / Fold change vs veh, N4BP2L2 / RFU, ARFIP1 / Fold change vs veh, ARFIP1 / RFU, FAM179B / Fold change vs veh, FAM179B / RFU, BCL10 / Fold change vs veh, BCL10 / RFU, UHRF1BP1L / Fold change vs veh, UHRF1BP1L / RFU, BET1 / Fold change vs veh, BET1 / RFU, CNOT2 / Fold change vs veh, CNOT2 / RFU, ZNF268 / Fold change vs veh, ZNF268 / Fold change vs veh, ZNF507 / RFU, DGCR2 / Fold change vs veh, DGCR2 / RFU, WDSUB1 / Fold change vs veh, WDSUB1 / Fold change vs veh, HSP90B1 /// MIR3652 / RFU, ADSS / Fold change vs veh, ADSS / RFU, GK / Fold change vs veh, GK / RFU, ZNF148 / Fold change vs veh, ZNF148 / RFU, TAF9 / Fold change vs veh, TAF9 / RFU, SLC1A5 / Fold change vs veh, SLC1A5 / RFU, SLMO2 / Fold change vs veh, SLMO2 / RFU, ABCC4 / Fold change vs veh, ABCC4 / RFU, LOC101060439 /// RAP1B / Fold change vs veh, LOC101060439 /// RAP1B / RFU, RFX7 / Fold change vs veh, RFX7 / RFU, GTPBP10 / Fold change vs veh, GTPBP10 / RFU, CNEP1R1 / Fold change vs veh, CNEP1R1 / RFU, BIVM-ERCC5 /// ERCC5 / Fold change vs veh, BIVM-ERCC5 /// ERCC5 / RFU, ILF3 / Fold change vs veh, ILF3 / RFU 11762660_at / Fold change /veh 11762660_at / RFU VCAN (11757783_s_at) / Fold change /veh VCAN (11757783_s_at) / RFU DDX43 (11728927_at) / Fold change /veh DDX43 (11728927_at) / RFU KRT8 (11758188_x_at) / Fold change /veh KRT8 (11758188_x_at) / RFU NKD1 (11759106_at) / Fold change /veh NKD1 (11759106_at) / RFU SRD5A1 (11742802_a_at) / Fold change /veh SRD5A1 (11742802_a_at) / RFU TPSAB1 /// TPSB2 (11721975_s_at) / Fold change /veh TPSAB1 /// TPSB2 (11721975_s_at) / RFU GSTM3 (11746129_a_at) / Fold change /veh GSTM3 (11746129_a_at) / RFU IL23R (11737362_x_at) / Fold change /veh IL23R (11737362_x_at) / RFU TMEM51 (11727254_a_at) / Fold change /veh TMEM51 (11727254_a_at) / RFU PIWIL2 (11732686_x_at) / Fold change /veh PIWIL2 (11732686_x_at) / RFU ORM1 (11744905_x_at) / Fold change /veh ORM1 (11744905_x_at) / RFU CCDC152 (11743942_at) / Fold change /veh CCDC152 (11743942_at) / RFU ECM1 (11717891_a_at) / Fold change /veh ECM1 (11717891_a_at) / RFU IL23R (11748794_a_at) / Fold change /veh IL23R (11748794_a_at) / RFU TNFAIP8L3 (11732012_x_at) / Fold change /veh TNFAIP8L3 (11732012_x_at) / RFU MBOAT4 (11741988_at) / Fold change /veh MBOAT4 (11741988_at) / RFU 11764193_at / Fold change /veh 11764193_at / RFU TMEM53 (11763286_at) / Fold change /veh TMEM53 (11763286_at) / RFU MAGEB2 (11727129_at) / Fold change /veh MAGEB2 (11727129_at) / RFU TMEM200A (11744735_a_at) / Fold change /veh TMEM200A (11744735_a_at) / RFU CCDC152 (11751479_a_at) / Fold change /veh CCDC152 (11751479_a_at) / RFU FAM211A (11726209_a_at) / Fold change /veh FAM211A (11726209_a_at) / RFU RGS16 (11746705_a_at) / Fold change /veh RGS16 (11746705_a_at) / RFU VCAN (11755009_s_at) / Fold change /veh VCAN (11755009_s_at) / RFU RHOB (11743442_s_at) / Fold change /veh RHOB (11743442_s_at) / RFU RGS16 (11720943_a_at) / Fold change /veh RGS16 (11720943_a_at) / RFU RGS16 (11720944_at) / Fold change /veh RGS16 (11720944_at) / RFU, VPS4B / Fold change vs veh, VPS4B / RFU, CREB1 / Fold change vs veh, CREB1 / RFU, DNAJC13 / Fold change vs veh, DNAJC13 / RFU, GNAQ / Fold change vs veh, GNAQ / RFU, CDK5R1 / Fold change vs veh, CDK5R1 / RFU, ZRANB3 / Fold change vs veh, ZRANB3 / RFU, CUL4A / Fold change vs veh, CUL4A / RFU, CCNY / Fold change vs veh, CCNY / RFU, UFL1 / Fold change vs veh, UFL1 / RFU, COG3 / Fold change vs veh, COG3 / RFU, DIAPH2 / Fold change vs veh, DIAPH2 / RFU, SKA2 / Fold change vs veh, SKA2 / RFU, AFF3 / Fold change vs veh, AFF3 / RFU, LMF1 / Fold change vs veh, LMF1 / RFU, IPO11 / Fold change vs veh, IPO11 / RFU, DFFB / Fold change vs veh, DFFB / RFU, FOXP1 / Fold change vs veh, FOXP1 / RFU, CARD8 / Fold change vs veh, CARD8 / RFU, STRN3 / Fold change vs veh, STRN3 / RFU, ADK / Fold change vs veh, ADK / RFU, RASSF2 / Fold change vs veh, RASSF2 / RFU, WIPF1 / Fold change vs veh, WIPF1 / RFU, LARP1B / Fold change vs veh, LARP1B / RFU, RASA1 / Fold change vs veh, RASA1 / RFU, RB1 / Fold change vs veh, RB1 / RFU, PPFIA1 / Fold change vs veh, PPFIA1 / RFU, MAT2A / Fold change vs veh, MAT2A / RFU, CCT5 / Fold change vs veh, CCT5 / RFU, WDR92 / Fold change vs veh, WDR92 / RFU, CUX1 / Fold change vs veh, CUX1 / RFU, TTC7A / Fold change vs veh, TTC7A / RFU, TMEM135 / Fold change vs veh, TMEM135 / RFU, DEPTOR / Fold change vs veh, DEPTOR / RFU, CPM / Fold change vs veh, CPM / RFU, DNAJB6 / Fold change vs veh, DNAJB6 / RFU, CACNA2D3 / Fold change vs veh, CACNA2D3 / RFU, DTX4 / Fold change vs veh, DTX4 / RFU, TFCP2 / Fold change vs veh, TFCP2 / RFU, GMCL1 /// GMCL1P1 / Fold change vs veh, GMCL1 /// GMCL1P1 / RFU, AEBP2 / Fold change vs veh, AEBP2 / RFU, SNHG1 /// SNORD22 /// SNORD25 /// SNORD26 /// SNORD27 /// SNORD28 /// SNORD29 /// SNORD31 / Fold change vs veh, SNHG1 /// SNORD22 /// SNORD25 /// SNORD26 /// SNORD27 /// SNORD28 /// SNORD29 /// SNORD31 / Fold change (Aza/veh), C12orf56 (ProbeSet 11735607_a_at) / Fold change (ACY-1035/veh), C12orf56 (ProbeSet 11735607_a_at) / Fold change (Aza/veh), FGFR1OP (ProbeSet 11751329_s_at) / Fold change (ACY-1035/veh), FGFR1OP (ProbeSet 11751329_s_at) / Fold change (Aza/veh), VPS36 (ProbeSet 11739960_a_at) / Fold change (ACY-1035/veh), VPS36 (ProbeSet 11739960_a_at) / RFU SYPL1 (11715823_x_at) / Fold change /veh SYPL1 (11715823_x_at) / RFU IGFBP7 (11715501_s_at) / Fold change /veh IGFBP7 (11715501_s_at) / RFU REEP3 (11722064_at) / Fold change /veh REEP3 (11722064_at) / RFU IGLL1 (11728026_x_at) / Fold change /veh IGLL1 (11728026_x_at): dose or concentration left out as unconfirmed
Details: ProbeSet 11722302_a_at; LIST B

With Nc1ccc(-c2cccs2)cc1NC(=O)c1ccc2c(c1)cc(C1CC1)n2CCN1CCOCC1 [ACY-1035] the “Fold change vs veh, LRRFIP1” value was 0.98.
